Laboratory results as given in PubChem BioAssay (NCI).
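The compound was tested at five concentrations on cells cultured in 96-well plates, with a 48-hour exposure period. Abbreviation: GI50, concentration required for 50% inhibition of growth. TGI denotes the concentration required for complete inhibition of growth.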

What was measured:
Test in all cases: NCI anticancer screen, dose series, 48 h
[1] = tested on: BT-549 breast
[2] = tested on: SK-MEL-5 melanoma
[3] = tested on: SF-539 CNS
[4] = tested on: SK-MEL-2 melanoma
[5] = tested on: SNB-19 CNS
[6] = tested on: SR leukemia
[7] = tested on: UO-31 renal
[8] = tested on: SK-MEL-28 melanoma

SMILES	GI50 [1]	TGI [1]	GI50 [2]	TGI [2]	GI50 [3]	TGI [3]	GI50 [4]	TGI [4]	GI50 [5]	TGI [5]	GI50 [6]	TGI [6]	GI50 [7]	TGI [7]	GI50 [8]	TGI [8]
O=C(CCCCCCN1CC(=O)N2[C@@H](c3ccc(Cl)c(Cl)c3)c3[nH]c4ccccc4c3C[C@H]2C1=O)NO	4.41 µM	14.2 µM	4.73 µM	9.29 µM	3.76 µM	9.27 µM	4.07 µM	13.2 µM	4.54 µM	12.5 µM	0.689 µM	3.1 µM	3.52 µM	8.86 µM	3.54 µM	9.52 µM
COc1cc(/C=C/C(=O)c2cccc(-n3cc(-c4ccc(Cl)cc4)[nH]c3=O)c2)cc(OC)c1OC	12.3 µM	79.9 µM	8.7 µM	23.7 µM	3.49 µM	14.3 µM	3.44 µM	12.5 µM	16.1 µM	37 µM	3.03 µM	> 100 µM	7.03 µM	21.3 µM	10.9 µM	25.6 µM
N#CCN1CCn2c1nsc2=S	> 100 µM	> 100 µM	> 100 µM	> 100 µM	> 100 µM	> 100 µM	> 100 µM	> 100 µM	> 100 µM	> 100 µM	1.09 µM	24.1 µM	44.8 µM	> 100 µM	> 100 µM	> 100 µM
O=C(Nc1cccc(-n2cc(-c3ccncc3)c(-c3cc(O)cc(Cl)c3)n2)c1)c1cc(C(F)(F)F)cc(C(F)(F)F)c1	4.65 µM	46.6 µM	2.61 µM	8.67 µM	5.01 µM	51.7 µM	3.28 µM	9.51 µM	7.03 µM	> 100 µM	1.61 µM	5.01 µM	2.5 µM	> 100 µM	4.71 µM	85.3 µM
COc1cc2c(cc1OCCCCN1CCN(C(=S)SCCC(C#N)(c3ccccc3)c3ccccc3)CC1)N=C[C@@H]1CCCN1C2=O	1.42 µM	8.84 µM	1.11 µM	2.82 µM	1.69 µM	3.27 µM	1.04 µM	2.35 µM	1.67 µM	3.98 µM	–	–	0.593 µM	2.09 µM	–	–
COc1ccc(NC(=O)C2CCC(CNS(=O)(=O)c3ccccc3)CC2)cc1OC (centres undefined)	> 100 µM	> 100 µM	> 100 µM	> 100 µM	> 100 µM	> 100 µM	> 100 µM	> 100 µM	–	–	0.542 µM	> 100 µM	> 100 µM	> 100 µM	–	–
Nc1nc(Nc2ccccc2SSc2ccccc2Nc2nc(N)nc(C(Cl)(Cl)Cl)n2)nc(C(Cl)(Cl)Cl)n1	3.34 µM	35.7 µM	5.97 µM	32.2 µM	11.2 µM	24.7 µM	13.2 µM	33.9 µM	4.41 µM	17.8 µM	1.63 µM	3.76 µM	1.56 µM	3 µM	10.9 µM	23.6 µM
